| SMILES | melting point |
| --- | --- |
| N#Cc1cc2c3ccccc3n(Cc3ccccc3)c2s1 | 130 to 132 °C |
| CCOc1sc(C(=O)N2CCCC2)c2c1C(=O)C(=CO)C(C)(C)C2 | 140 to 142 °C |
| O=C(N[C@@H](Cc1ccccc1)C(=O)O)C(CS)C(F)(F)F (stereo partly specified) | 133 to 134 °C |
| Cc1cc(NC(=O)CN(CC(=O)O)CC(=O)O)ccc1Br | 206 to 209 °C |
| CCCCCC(c1ccccc1C(F)(F)F)C(C(N)=O)c1cc(C(=O)O)ccc1C(C)(C)C (stereo unspecified) | 199 to 200 °C |
| CC1=CC(c2cccc(Br)c2)C2=C(CCCC2=O)N1 (stereo unspecified) | 187 to 191 °C |
| CCOC(=O)N1CCC(=NO)c2cc(F)ccc21 | 122 to 124 °C |
| COc1c(N)ccc2c1C(=CC#N)CC2 | 140 to 142 °C |
| CCOC(=O)COc1ccc2cc(Br)ccc2c1Br | 104 to 106 °C |
| CC(C)(N)CNC(=O)CNC(=O)c1ccccc1 | 80 to 84 °C |
| Cc1ccc([N+](=O)[O-])c(C(O)=S)c1 | 165 to 169 °C |
| Cc1ncnc2c1ncn2[C@H](C)[C@](O)(Cn1cncn1)c1ccc(F)cc1F | 200 to 201 °C |
| O=[N+]([O-])c1ccc2c(c1)NP(=O)(N(CCCl)CCCl)NC2 (stereo unspecified) | 168 to 170 °C |
| Cc1c(CCCCCCCCCCCC(=O)O)cccc1C(=O)c1ccc(Cl)cc1 | 79 °C |
| COc1ccc(C(C)(C)C)c(O)c1C(=O)Oc1ccccc1 | 74 to 75 °C |
| CCC(=O)Nc1c([N+](=O)[O-])cnn1-c1nc(Cl)c(C(F)(F)F)cc1Cl | 148 to 154 °C |
| CC(C)(Oc1ccc(NC(=O)Oc2ccc(Cl)cc2)cc1)C(=O)O | 179 to 182 °C |
| COC(=O)c1ccc(-c2ccc(-c3ccccc3)c(-c3ccc4c(c3)SCCC4(C)C)c2)cc1 | 172 °C |
| Cc1cccc2c1OC[C@H](NC(=O)OC(C)(C)C)C(=O)N2 | 179 °C |
| OC(Cc1ccccn1)(c1ccccc1)c1ccccc1 | 147 to 151 °C |
| Cc1oc2cc(O)ccc2c(=O)c1C(N)=O | 289 to 290 °C |
| COC(=O)c1nc(-c2csc3ccc(C)cc23)nc(N)c1Cl | 164 to 165 °C |
| COc1ccc(C2OC3(CCNCC3)N3CCCCC23)cc1 (stereo unspecified) | 128 to 130 °C |
| O=C1C(=C(O)C(F)(F)F)CCc2ccccc21 | 48 to 49 °C |
| OC1c2cc(Cl)ccc2OCC1n1ccnc1 (stereo unspecified) | 153 to 160 °C |

| SMILES | melting point |
| --- | --- |
| CCOC(=O)C1=C(C=O)Nc2ccnc(OC(C)C)c2C1c1ccccc1 (stereo unspecified) | 132 to 135 °C |
| CCOC(=O)c1cc(Br)c2oc(C)c(C)c2c1 | 110 to 111 °C |
| CCOC1OC(CO)C(COc2c(C(C)(C)C)cc(SC(C)(C)Sc3cc(C(C)(C)C)c(O)c(C(C)(C)C)c3)cc2C(C)(C)C)O1 (stereo unspecified) | 60 to 62 °C |
| Cc1cc(C)c(Nc2nc(C)ncc2S(=O)(=O)c2ccc(-c3ncccn3)cc2)c(C)c1 | 215 to 217 °C |
| O=C(O)C(CC1CCCC1)c1ccc(C#Cc2ccccn2)cc1 (stereo unspecified) | 143 to 147 °C |
| Cc1cccc(C)c1N1C(=O)CN(C(C)C)C1=S | 135 to 137 °C |
| C=CC(=O)O[C@H]1CC[C@H](c2cccc(F)c2F)CC1 | 72.9 to 73.6 °C |
| Oc1cccc(-c2ncc3ncc(Cl)cc3n2)c1 | 252 to 253 °C |
| Cc1ccc2c(c1)N(CC(=O)NC(C)(C)C)C(=O)C(Br)CC2c1ccccc1C (stereo unspecified) | 219 to 221 °C |
| COC(=O)Nn1c(N)c(C#N)c(C)c1-c1ccccc1 | 178 to 179 °C |
| O=C1NC(=O)C(SCCO)=C1SCCO | 46 to 50 °C |
| CCSc1nc(NCc2ccccc2)c2ncn(C3OC(CO)C(O)C3O)c2n1 (stereo unspecified) | 172 to 174 °C |
| CC(=O)c1sc(N2CCN(CCCC(F)(F)F)C2=O)nc1C | 108 to 110 °C |
| O=C(O)c1ccc(C(=O)Nc2ccccc2C(c2ccc(O)cc2)c2ccc(O)cc2)cc1 | 280 to 282 °C |
| CCCc1ccc2nc(S(=O)(=O)CC)c(S(N)(=O)=O)n2n1 | 232 to 233 °C |
| Cc1cc(C)c(Oc2nc(C)nc(Cl)c2Cl)c(C)c1 | 68 to 70 °C |
| CCOC(=O)CC1(O)c2ccccc2C=Cc2ccccc21 | 93 to 99 °C |
| Cc1cc(N(C)S(=O)(=O)c2cccs2)c2[nH]c(C3=NCC(CNC(=O)OCc4ccccc4)S3)cc2c1 (stereo unspecified) | 160 °C |
| CC(C)Cn1c(CNC(=O)OC(C)(C)C)c(-c2ccccc2)c2cc(OC(C)(C)C(=O)O)ccc2c1=O | 219 to 220 °C |
| CCCCCCCCCCCCCCNC1=NS(=O)(=O)c2sc(Cl)cc2N1 | 157 to 158 °C |
| CSc1ncc(-c2ccccc2)c(=O)[nH]1 | 252 to 254 °C |
| COC1C=C(C)C(=O)CC(C)(C)C1OC(=O)c1ccccc1C(=O)O (stereo unspecified) | 158 °C |
| Cc1nc(NC(=O)c2cnn3c(C(F)(F)F)cc(-c4ccc(C(F)(F)F)cc4)nc23)sc1S(N)(=O)=O | 303 °C |
| CCOC(=O)C(C)n1ncc2ccc([N+](=O)[O-])cc21 (stereo unspecified) | 99.7 to 100 °C |
| O=C1C(Br)CCN1c1cc(C(F)(F)F)ccn1 (stereo unspecified) | 43 to 47 °C |

Continued, values first:

| melting point | SMILES |
| --- | --- |
| 164 to 165 °C | C[C@@H](O[C@H]1CCCN(Cc2n[nH]c(=O)[nH]2)[C@H]1c1ccccc1)c1cccc(Cl)c1 |
| 74 to 77 °C | COc1cc(N)c(Cl)cc1C(=O)NCC1CCN(CCCCCNC(=O)c2nn(C)c3ccccc23)CC1 |
| 155 to 157 °C | CC(=O)NC[C@H]1CN(c2ccc(C3CCN(CCF)CC3)c(F)c2)C(=O)O1 |
| 173 to 175 °C | CCn1ncc(-c2ccc3c(c2)c(C2CCN(CCN4CCNC4=O)CC2)cn3-c2ccc(F)cc2)n1 |
| 124 to 127 °C | CN1CCN(c2cccc3c2C[C@H](NC(=O)c2ccc(C(=O)N4CCOCC4)cc2)CC3)CC1 |
| 255 to 257 °C | CCOc1ccc(C(=O)C2=C(O)C(=O)N(c3ccc(C)nn3)C2c2ccc(OC(F)(F)F)cc2)cc1 (stereo unspecified) |
| 187 to 189 °C | O=c1cc(NCCN2CCN(c3cccc(Cl)c3)CC2)cn[nH]1 |
| 132 °C | CCNC(=O)c1ccc(-n2nnc(C(=O)NC3CC3)c2COCc2ccccc2)c(OCc2ccccc2)c1 |
| 118 to 120 °C | CCOC(C)n1c(Cl)nc(-c2ccc(OC)cc2)c1-c1ccc(OC)cc1 (stereo unspecified) |
| 222 to 223 °C | Cn1c(COc2ccc(CC3SC(=O)NC3=O)cc2)nc2ccc(Cl)nc21 (stereo unspecified) |
| 156 to 157 °C | CCCC1=C(C(=O)OCC)C(c2ccccc2Cl)c2cn(C(=O)Oc3ccccc3)nc2N1 (stereo unspecified) |
| 161 to 165 °C | CC(=O)N1CCn2nc(Nc3cc(-c4ccc5c(c4)NC(=O)C5)cn4ccnc34)cc2C1 |
| 100 to 102 °C | O=C(OCc1ccccc1)N1CCC2(CC1)CN(c1ccccc1)C(=O)O2 |
| 164 °C | COC(=O)c1scc(-c2ccccc2)c1-c1ccc(S(C)=O)c(F)c1 (stereo unspecified) |
| 232 to 233 °C | O=C(Nc1cccnc1)N1CCN(c2nccc(-c3cccc(F)c3F)n2)CC1 |
| 225 to 232 °C | Cn1c2c(c3ccccc31)C(=O)C(=Cc1c[nH]cn1)CC2 |
| 179 to 181 °C | c1ccc(CC2CCN(Cc3nc4ccccc4[nH]3)CC2)cc1 |
| 80 to 82 °C | O=C(Nc1ccc2[nH]ccc2c1)C(=O)N1CCC(Cc2ccc(F)cc2)CC1 |
| 214 °C | CCOc1ccc(-c2cc(Nc3ccc(OC)c(Cl)c3)nc(NC(C)=O)n2)cc1 |
| 67.8 °C | Cc1cc(C)cc(C(=O)N2CCC(N3CCC(NCCc4ccccc4)CC3)CC2Cc2ccccc2)c1 (stereo unspecified) |
| 90 to 91 °C | OCCC1CCc2cc(OCc3ccc4ccccc4c3)ccc2C1 (stereo unspecified) |
